Measurements taken from patent publication US9464044B2, “Compound having ability to inhibit 11Beta-HSD1 enzyme or pharmaceutically acceptable salt thereof, method for producing same, and pharmaceutical composition containing same as active ingredient” (AHN-GOOK PHARMACEUTICAL CO., LTD., priority 2012, dated 2016).

These compounds were tested against 11β-HSD1 (Homo sapiens (Human), UniProt P28845) (assay: 11β-HSD1 inhibiting activity, HTRF assay with human microsomal fractions). Conditions: 160 nM cortisone, 200 μM NADPH, 2 h at 37° C.
Assay type: biochemical
Experimental: The inhibiting activity of 11β-HSD1 derived from microsomal fractions was measured using the HTRF assay (62CO2PEB, Cisbio). […] Europium (Eu^3+) cryptate and XL665-conjugated cortisol were then added to each well and incubated for an additional 2 h at room temperature. The Cortisol concentration was calculated u sing a calibration curve. The IC50 values were calculated from dose response curves using GraphPad Prism software.

11β-HSD1, sequence (P28845 whole entry): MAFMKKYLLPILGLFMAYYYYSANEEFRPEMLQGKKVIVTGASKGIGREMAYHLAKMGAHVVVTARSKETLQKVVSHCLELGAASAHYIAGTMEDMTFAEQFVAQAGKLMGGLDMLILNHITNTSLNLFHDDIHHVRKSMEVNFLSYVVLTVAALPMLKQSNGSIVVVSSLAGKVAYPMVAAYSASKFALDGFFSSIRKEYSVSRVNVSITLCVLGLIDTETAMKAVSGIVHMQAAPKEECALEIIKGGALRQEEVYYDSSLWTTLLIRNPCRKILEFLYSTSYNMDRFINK

Question: Which IC50 does the source give for Cc1c(Cl)cccc1S(=O)(=O)NCC(C)(C)C(=O)NC1C2CC3CC1CC(C(N)=O)(C3)C2 (stereo not drawn) [Example 70, E-4-[3-(3-chloro-2-methyl-benzenesulfonylamino)-2,2-dimethylpropanamido]adamantan-1-carboxylic acid amide] here?
Answer: 6.2 nM

Question: How did the IC50 turn out when CC(C)(NS(=O)(=O)c1ccccc1F)C(=O)NC1C2CC3CC1CC(C(N)=O)(C3)C2 (stereo not drawn) [Example 71, E-4-[2-(2-fluoro-benzenesulfonylamino)-2-methylpropanamido]-adamantan-1-carboxylic acid amide] was run?
Answer: 0.6 nM

Question: With CN(C(C)(C)C(=O)NC1C2CC3CC1CC(C(N)=O)(C3)C2)S(=O)(=O)c1ccccc1F (stereo not drawn) [Example 72, E-4-[2-(2-fluoro-N-methyl-benzenesulfonylamino)-2-methylpropanamido]adamantan-1-carboxylic acid amide] as the compound, how does the IC50 read?
Answer: 1.2 nM

Question: NC(=O)C12CC3CC(C1)C(NC(=O)c1ccccc1NS(=O)(=O)c1ccccc1F)C(C3)C2 (stereo not drawn) [Example 92, E-4-[2-(2-fluoro-benzenesulfonylamino)-benzamido]-adamantan-1-carboxylic acid amide] was tested. Which IC50 did it give?
Answer: 148 nM

Question: How did the IC50 turn out when NC(=O)C12CC3CC(C1)C(NC(=O)c1cccc(NS(=O)(=O)c4ccc(F)cc4)c1)C(C3)C2 (stereo not drawn) [Example 94, E-4-[3-(4-fluoro-benzenesulfonylamino)-benzamido]-adamantan-1-carboxylic acid amide] was run?
Answer: 75.7 nM

Question: With CN(c1cccc(C(=O)NC2C3CC4CC2CC(C(N)=O)(C4)C3)c1)S(=O)(=O)c1ccccc1C(F)(F)F (stereo not drawn) [Example 99, E-4-(3-[(2-trifluoromethyl-benzenesulfonyl)-methylamino]-benzamido)-adamantan-1-carboxylic acid amide] as the compound, how does the IC50 read?
Answer: 1.9 nM

Question: With NC(=O)C12CC3CC(C1)C(NC(=O)c1cccc(NS(=O)(=O)c4ccccc4C(F)(F)F)c1)C(C3)C2 (stereo not drawn) [Example 100] as the compound, how does the IC50 read?
Answer: 15.3 nM

Question: How did the IC50 turn out when NC(=O)C12CC3CC(C1)C(NC(=O)c1cccc(NS(=O)(=O)c4ccco4)c1)C(C3)C2 (stereo not drawn) [Example 103, E-4-[3-(furan-2-sulfonylamino)-benzamido]-adamantan-1-carboxylic acid amide] was run?
Answer: 23.8 nM

Question: NC(=O)C12CC3CC(C1)C(NC(=O)c1cccc(NS(=O)(=O)c4ccccc4)c1)C(C3)C2 (stereo not drawn) [Example 105] was tested. Which IC50 did it give?
Answer: 42.7 nM

Question: How did the IC50 turn out when NC(=O)C12CC3CC(C1)C(NC(=O)c1cccc(NS(=O)(=O)c4ccccc4Cl)c1)C(C3)C2 (stereo not drawn) [Example 106] was run?
Answer: 4.8 nM

Question: For Cc1nc(C)c(S(=O)(=O)Nc2cccc(C(=O)NC3C4CC5CC3CC(C(N)=O)(C5)C4)c2)s1 (stereo not drawn) [Example 107], which IC50 is on record?
Answer: 60.3 nM

Question: How did the IC50 turn out when Cc1n[nH]c(C)c1S(=O)(=O)Nc1cccc(C(=O)NC2C3CC4CC2CC(C(N)=O)(C4)C3)c1 (stereo not drawn) [Example 108, E-4-[3-(3,5-dimethyl-1H-pyrazole-4-sulfonylamino)-benzamido]-adamantan-1-carboxylic acid amide] was run?
Answer: 51.2 nM

Question: NC(=O)C12CC3CC(C1)C(NC(=O)c1cccc([N-]S(=O)(=O)c4cccc(Cl)c4F)c1)C(C3)C2.[Na+] (stereo not drawn) [Example 113, E-sodium[3-((5-carbamoyladamantan-2-yl)carbamoyl)phenyl]-2-fluoro-3-chloro-benzenesulfonylamide] was tested. Which IC50 did it give?
Answer: 2.7 nM

Question: NC(=O)C12CC3CC(C1)C(NC(=O)c1cccc(NS(=O)(=O)c4ccc(C(F)(F)F)c(Cl)c4)c1)C(C3)C2 (stereo not drawn) [Example 114, E-4-[3-(3-chloro-4-(trifluoromethyl)benzenesulfonylamino)benzamido]adamantan-1-carboxylic acid amide] was tested. Which IC50 did it give?
Answer: 30.7 nM

Question: NC(=O)C12CC3CC(C1)C(NC(=O)c1cccc(NS(=O)(=O)c4ccccc4C(F)(F)F)c1)C(C3)C2 (stereo not drawn) [Example 115] was tested. Which IC50 did it give?
Answer: 19.1 nM

Question: Which IC50 does the source give for NC(=O)C12CC3CC(C1)C(NC(=O)c1cccc(NS(=O)(=O)c4ccc(Br)cc4Cl)c1)C(C3)C2 (stereo not drawn) [Example 116, E-4-[3-(2-chloro-4-bromo-benzenesulfonylamino)-benzamido]-adamantan-1-carboxylic acid amide] here?
Answer: 14.5 nM

Question: With NC(=O)C12CC3CC(C1)C(NC(=O)c1cccc(NS(=O)(=O)c4c(Cl)cc(Cl)cc4Cl)c1)C(C3)C2 (stereo not drawn) [Example 117, E-4-[3-(2,4,6-trichloro-benzenesulfonylamino)-benzamido]-adamantan-1-carboxylic acid amide] as the compound, how does the IC50 read?
Answer: 5 nM

Question: Which IC50 does the source give for NC(=O)C12CC3CC(C1)C(NC(=O)c1cccc(NS(=O)(=O)c4cc(F)cc(Cl)c4)c1)C(C3)C2 (stereo not drawn) [Example 118, E-4-[3-(3-chloro-5-fluoro-benzenesulfonylamino)-benzamido]-adamantan-1-carboxylic acid amide] here?
Answer: 20.4 nM

Question: Which IC50 does the source give for NC(=O)C12CC3CC(C1)C(NC(=O)c1cccc(NS(=O)(=O)c4cccc(F)c4)c1)C(C3)C2 (stereo not drawn) [Example 120, E-4-[3-(3-fluoro-benzenesulfonylamino)-benzamido]-adamantan-1-carboxylic acid amide] here?
Answer: 27.2 nM

Question: For NC(=O)C12CC3CC(C1)C(NC(=O)c1cccc(NS(=O)(=O)c4ccc(F)cc4F)c1)C(C3)C2 (stereo not drawn) [Example 121, E-4-[3-(2,4-difluoro-benzenesulfonylamino)-benzamido]-adamantan-1-carboxylic acid amide], which IC50 is on record?
Answer: 7.8 nM

Question: For NC(=O)C12CC3CC(C1)C(NC(=O)c1cccc(NS(=O)(=O)c4cc(F)ccc4F)c1)C(C3)C2 (stereo not drawn) [Example 122, E-4-[3-(2,5-difluoro-benzenesulfonylamino)-benzamido]-adamantan-1-carboxylic acid amide], which IC50 is on record?
Answer: 15.1 nM

Question: For NC(=O)C12CC3CC(C1)C(NC(=O)c1cccc(NS(=O)(=O)c4c(F)cccc4F)c1)C(C3)C2 (stereo not drawn) [Example 123, E-4-[3-(2,6-difluoro-benzenesulfonylamino)-benzamido]-adamantan-1-carboxylic acid amide], which IC50 is on record?
Answer: 12.8 nM

Question: Which IC50 does the source give for NC(=O)C12CC3CC(C1)C(NC(=O)c1cccc(NS(=O)(=O)c4ccccc4C(F)(F)F)c1F)C(C3)C2 (stereo not drawn) [Example 125, E-4-[2-fluoro-3-(2-(trifluoromethyl)benzenesulfonylamino)benzamido]adamantan-1-carboxylic acid amide] here?
Answer: 11.6 nM

Question: Which IC50 does the source give for NC(=O)C12CC3CC(C1)C(NC(=O)c1cccc(NS(=O)(=O)c4cccc(Cl)c4)c1F)C(C3)C2 (stereo not drawn) [Example 132, E-4-[2-fluoro-3-(3-chlorobenzenesulfonylamino)benzamido]adamantan-1-carboxylic acid amide] here?
Answer: 148 nM

Question: Which IC50 does the source give for NC(=O)C12CC3CC(C1)C(NC(=O)c1cccc(NS(=O)(=O)C4CC4)c1)C(C3)C2 (stereo not drawn) [Example 138, E-4-(3-(cyclopropanesulfonamido)benzamido)adamantan-1-carboxylic acid amide] here?
Answer: 62.1 nM

Question: Which IC50 does the source give for NC(=O)C12CC3CC(C1)C(NC(=O)C1(CNC(=O)N4CCc5ccccc5C4)CC1)C(C3)C2 (stereo not drawn) [Example 140] here?
Answer: 97.8 nM

Question: For NC(=O)C12CC3CC(C1)C(NC(=O)C1(CNC(=O)N4CCCc5ccccc54)CC1)C(C3)C2 (stereo not drawn) [Example 141, E-3,4-dihydro-2H-quinolin-1-carboxylic acid[1-(5-carbamoyl-adamantan-2-ylcarbamoyl)-cyclopropylmethyl]-amide], which IC50 is on record?
Answer: 52.5 nM

Question: Which IC50 does the source give for NC(=O)C12CC3CC(C1)C(NC(=O)C1(CNC(=O)N4CCNc5ccccc54)CC1)C(C3)C2 (stereo not drawn) [Example 146, E-3,4-dihydro-2H-quinoxalin-1-carboxylic acid[1-(5-carbamoyl-adamantan-2-ylcarbamoyl)-cyclopropylmethyl]-amide] here?
Answer: 128 nM

What follows are compounds tested on KKAy mice (assay: In vivo study of the lowering effect on plasma glucose and plasma insulin in KKAy mouse model). Conditions: either 100 mg/kg or 50 mg/kg.

Question: Which “levels of plasma glucose and plasma insulin” value (shortened to “levels”) does the source give for NC(=O)C12CC3CC(C1)C(NC(=O)C1(CNS(=O)(=O)c4ccccc4F)CC1)C(C3)C2 (stereo not drawn) [Example 3, E-4-[1-((2-fluoro-benzenesulfonylamino)methyl)cyclopropanecarboxamido]-adamantan-1-carboxylic acid amide] here?
Answer: significantly reduced

Question: For CN(CC1(C(=O)NC2C3CC4CC2CC(C(N)=O)(C4)C3)CC1)S(=O)(=O)c1ccccc1F (stereo not drawn) [Example 22, E-4-[1-((2-fluoro-N-methyl-benzenesulfonylamino)methyl)cyclopropanecarboxamido]-adamantan-1-carboxylic acid amide], which “levels” value is on record?
Answer: significantly reduced

Question: CC(C)(NS(=O)(=O)c1ccccc1F)C(=O)NC1C2CC3CC1CC(C(N)=O)(C3)C2 (stereo not drawn) [Example 71, E-4-[2-(2-fluoro-benzenesulfonylamino)-2-methylpropanamido]-adamantan-1-carboxylic acid amide] was tested. Which “levels” value did it give?
Answer: significantly reduced

Question: With CC(C)(NS(=O)(=O)c1c(F)cccc1F)C(=O)NC1C2CC3CC1CC(C(N)=O)(C3)C2 (stereo not drawn) [Example 84, E-4-[2-(2,6-difluoro-benzenesulfonylamino)-2-methylpropanamido]adamantan-1-carboxylic acid amide] as the compound, how does the “levels” value read?
Answer: significantly reduced

Question: How did the “levels” value turn out when NC(=O)C12CC3CC(C1)C(NC(=O)c1cccc([N-]S(=O)(=O)c4cccc(Cl)c4F)c1)C(C3)C2.[Na+] (stereo not drawn) [Example 113, E-sodium[3-((5-carbamoyladamantan-2-yl)carbamoyl)phenyl]-2-fluoro-3-chloro-benzenesulfonylamide] was run?
Answer: significantly reduced

Question: How did the “levels” value turn out when NC(=O)C12CC3CC(C1)C(NC(=O)c1cccc(NS(=O)(=O)c4cc(Cl)cc(Cl)c4)c1)C(C3)C2 (stereo not drawn) [Example 119, E-4-[3-(3,5-dichloro-benzenesulfonylamino)benzamido]-adamantan-1-carboxylic acid amide] was run?
Answer: significantly reduced

Same assay, conditions: oral, 50 mg/kg, 3 weeks, after fasting

Question: CC(C)(NS(=O)(=O)c1c(F)cccc1F)C(=O)NC1C2CC3CC1CC(C(N)=O)(C3)C2 (stereo not drawn) [Example 84, E-4-[2-(2,6-difluoro-benzenesulfonylamino)-2-methylpropanamido]adamantan-1-carboxylic acid amide] was tested. Which “Plasma glucose lowering effect” value did it give?
Answer: 19%

Question: And the “Plasma insulin lowering effect” value?
Answer: 43%

Question: What does the source list for NC(=O)C12CC3CC(C1)C(NC(=O)c1cccc(NS(=O)(=O)c4cc(Cl)cc(Cl)c4)c1)C(C3)C2 (stereo not drawn) [Example 119, E-4-[3-(3,5-dichloro-benzenesulfonylamino)benzamido]-adamantan-1-carboxylic acid amide]?
Answer: Plasma glucose lowering effect: 47%; Plasma insulin lowering effect: 52%

Same assay, conditions: oral, 100 mg/kg, 3 weeks, after fasting

Question: CC(C)(NS(=O)(=O)c1ccccc1F)C(=O)NC1C2CC3CC1CC(C(N)=O)(C3)C2 (stereo not drawn) [Example 71, E-4-[2-(2-fluoro-benzenesulfonylamino)-2-methylpropanamido]-adamantan-1-carboxylic acid amide] was tested. Which “Plasma glucose lowering effect” value did it give?
Answer: 27%

Question: What about the “Plasma insulin lowering effect” value of the same compound?
Answer: 40%

Question: Which “Plasma glucose lowering effect” value does the source give for NC(=O)C12CC3CC(C1)C(NC(=O)c1cccc([N-]S(=O)(=O)c4cccc(Cl)c4F)c1)C(C3)C2.[Na+] (stereo not drawn) [Example 113, E-sodium[3-((5-carbamoyladamantan-2-yl)carbamoyl)phenyl]-2-fluoro-3-chloro-benzenesulfonylamide] here?
Answer: 28%

Question: What about the “Plasma insulin lowering effect” value of the same compound?
Answer: 60%
